Results: US8507464B2, “Phosphoramidate alkylator prodrugs” (Threshold Pharmaceuticals, Inc., priority 2005, dated 2013)
Where two headings read alike, the source gives them in different places.

Experiments:
[1] = tested on: MES-SA cells; assay: Antiproliferation assay (Alamar Blue), anoxia vs air; conditions: Homo sapiens, 2 h
[2] = Plasma stability (Table 2B); conditions: 30 min
[3] = tested on: H460 cell line; assay: Anti-proliferation assay, hypoxia vs normoxia (Table 1A); conditions: for IC50: Homo sapiens; for HCR P: ratio of IC50 in normoxia and hypoxia
[4] = tested on: NCI-H460 cells; assay: Clonogenic assay - oxygen dependence; conditions: Homo sapiens
[5] = tested on: NCI-H460 cells; assay: Antiproliferation assay (Alamar Blue), anoxia vs air
[6] = tested on: HT29 cells; assay: as above; conditions: Homo sapiens, HT-29, 2 h
[7] = tested on: mouse (MLM) liver microsomal proteins; format: in vitro ADME; conditions: Table 2B
[8] = tested on: H460 lung carcinoma spheroids; assay: Spheroid model, clonogenic survival; conditions: read-out: IC90 H460 Spheroid 10% O2
[9] = tested on: NCI-H460 cells; assay: Antiproliferation assay - oxygen dependence; format: cell-based, human
Excerpt: . […] The calculated IC50 values (μM) are tabulated in Table Y1 (H460 cells) or Table Y2 (HT29 cells) below.

[10] = tested on: human H460 cells; assay: Clonogenic survival assay, hypoxia vs normoxia (Table 1A); conditions: for IC90: Homo sapiens
[11] = Pharmacokinetics after intravenous or intraperitoneal administration in mice (Table 2B); conditions: plasma, 50 mg/kg
[12] = tested on: HT29; assay: Clonogenic assay, hypoxia vs normoxia (Table 1B); conditions: Homo sapiens, HT-29, read-out: HT29 C H (clonogenic IC90, hypoxia)
[13] = in vivo; conditions: CD-1, mouse, 50 mg/kg
[14] = tested on: HT29; assay: Anti-proliferation assay, hypoxia vs normoxia (Table 1B); conditions: Homo sapiens, HT-29, read-out: HT29 P H (proliferation IC50, hypoxia)
[15] = tested on: H460 cells exposed as monolayers; assay: Clonogenic survival of monolayer cells (Example 35); conditions: Homo sapiens, NCI-H460, 2 h, read-out: IC90 H460 Monolayer N2
[16] = NCI-H460, read-out: Hypoxia P (proliferation IC50)
[17] = NCI-H460, read-out: Normoxia P (proliferation IC50)
[18] = NCI-H460, read-out: IC90 H460 0.6% O2
[19] = NCI-H460, read-out: IC90 H460 Air
[20] = NCI-H460, read-out: IC90 H460 N2
[21] = Homo sapiens, NCI-H460, 2 h, read-out: IC50 H460 Air, air, 2 h exposure
[22] = Homo sapiens, NCI-H460, 2 h, read-out: IC50 H460 Anoxia, anoxia, 2 h exposure
[23] = read-out: IC50 H460 Air, air, 2 h exposure
[24] = Homo sapiens, NCI-H460, read-out: IC50 in H460 cells, 0.6% O2
[25] = Homo sapiens, NCI-H460, read-out: IC50 in H460 cells, 1% O2
[26] = CD-1, Balb/c for Compound 1, mouse, iv
[27] = Homo sapiens, NCI-H460, read-out: IC50 in H460 cells, Air
[28] = Homo sapiens, NCI-H460, read-out: IC50 in H460 cells, N2

SMILES | Plasma stability (% at 30 min) [2] [%] | IC50 [3, 16] [µM] | IC50 [3, 17] [µM] | HCR P [3] | IC90 [4, 18] [µM] | IC90 [4, 19] [µM] | IC90 [4, 20] [µM] | IC50 [5, 21] [µM] | IC50 [5, 22] [µM] | IC50 [5, 23] [µM] | IC50 ([6]; read-out: IC50 HT29 Anoxia) [µM] | Metabolic stability (MLM) (% at 30 min) [7] [%] | IC90 ([8]; Homo sapiens, NCI-H460, 2 h) [µM] | IC50 [9, 24] [µM] | IC50 [9, 25] [µM] | IC50 [9, 27] [µM] | IC50 [9, 28] [µM] | further results
Cn1c(COP2(=O)N(CCBr)CCCN2CCBr)cnc1[N+](=O)[O-] [Compound 35] | 85 | 0.075 | 50 | 625 | 3 | 30 | 0.5 | 50 | 0.075 | 55 | 1.8 | 56 | 22 | 5 | 40 |  |  | IC50 ([1]; read-out: IC50 MES-SA Air): 100 µM; IC50 ([1]; read-out: IC50 MES-SA Anoxia): 1 µM; IC50 ([6]; read-out: IC50 HT29 Air): > 100 µM; IC50 ([9]; Homo sapiens, NCI-H460, read-out: IC50 in H460 cells, 0.3% O2): 6 µM; IC50 ([9]; Homo sapiens, NCI-H460; read-out: IC50 in H460 cells, Air): 50 µM; IC50 ([9]; Homo sapiens, NCI-H460; read-out: IC50 in H460 cells, N2): 0.05 µM
O=[N+]([O-])c1ccc(COP(=O)(NCCCl)NCCCl)o1 [Compound 23] | 84 | 0.04 | 5 | 125 | 0.6 | 5 | 0.3 |  |  |  | 7.5 | 71 |  | 6 | 5 | 5 | 0.05 | IC90 ([10]; NCI-H460, read-out: Hypoxia C (clonogenic IC90)): 0.2 µM; IC90 ([10]; NCI-H460, read-out: Normoxia C (clonogenic IC90)): 10 µM; HCR C ([10]; ratio of IC90 in normoxia and hypoxia): 50; clearance ([11]; CD-1 (Compounds 5, 23, 36), Balb/c (Compound 1), mouse, iv): 368 mL/min/kg; AUC ([11]; CD-1, mouse, ip): 3500 ng·h/mL; Cmax ([11]; CD-1, Balb/c for Compound 1, mouse, ip): 8500 ng/mL; AUC [11, 26]: 2300 ng·h/mL; Cmax [11, 26]: 7800 ng/mL; Vd [11, 26]: 3.3 L/kg; half-life [11, 26]: 9 min; half-life ([11]; mouse, ip): 9.6 min; IC90 [12]: 2 µM; Cmax ([13]; ip): 8500 ng/mL; Tmax ([13]; ip): 5 min; half-life ([13]; ip): 9.6 min; Cmax ([13]; iv): 7800 ng/mL; Tmax ([13]; iv): 5 min; half-life ([13]; iv): 8.87 min; IC50 ([9]; Homo sapiens, NCI-H460, read-out: IC50 in H460 cells, 0.1% O2): 5 µM; IC50 [14]: 7.5 µM
COC(=O)c1cc(C(C)OP(=O)(NCCBr)NCCBr)ccc1OCc1cnc([N+](=O)[O-])n1C (stereo not shown) [Compound 70] |  |  |  |  | 8 | 20 | 2 | 65 | 2 |  |  |  | 25.5 | 30 |  | 65 | 2 | IC90 [15]: 1.25 µM
N#Cc1cc(COP(=O)(NCCBr)NCCBr)sc1[N+](=O)[O-] [Compound 97] |  |  |  |  |  |  |  |  |  | 0.1 |  |  |  |  |  |  |  | IC50 ([5]; read-out: IC50 H460 Anoxia, anoxia, 2 h exposure): 0.01 µM; IC90 ([8]; 2 h exposure, 10% O2): 13 µM; IC50 ([9]; Air; read-out: IC50 in H460 cells, Air): 0.02 µM; IC50 ([9]; N2; read-out: IC50 in H460 cells, N2): 0.006 µM; IC50 ([9]; read-out: IC50 in H460 cells, 0.6% O2): 0.01 µM
